From ChEMBL document CHEMBL5512624, “OSMAC Strategy: A promising way to explore microbial cyclic peptides” (Eur J Med Chem, 2024)
In brackets after ≈: the same amount, converted by molar mass. Numbered stars: 1 amine (or outer) side, 2 acyl side, 3 side chain; on linkers, the order of the positions; unused ones are H or OH. Square brackets hold non-standard residues; d marks the D form. Peptide text beside a SMILES is read from it. X5 = C=C(N[*:1])c1nc(-c2nc(C(=O)[*:2])ccc2-c2nccs2)co1; X1 = CCC(C)CCCCCCCCCCC[C@H](N[*:1])C(=O)[*:2]; X7 = CC(C)CCCCCCCCCCC[C@H](N[*:1])C(=O)[*:2]; X2 = CCC(C)CCCCCCCCC[C@H](N[*:1])C(=O)[*:2]; X6 = CC(C)CCCCCCCCCC[C@H](N[*:1])C(=O)[*:2]; X8 = CCCCCCCCCCCCCC[C@H](N[*:1])C(=O)[*:2]; Gly(Dodecyl) = CCCCCCCCCCCC[C@H](N)C(=O)O; X3 = C/C=C(\N[*:1])c1nc(C(=O)[*:2])co1; X4 = C=C(N[*:1])c1nc(C(=O)[*:2])c(C)o1; NMeY = CN[C@@H](Cc1ccc(O)cc1)C(=O)O; Val(3-OH) = CC(C)(O)[C@H](N)C(=O)O; Dha = C=C(N)C(=O)O

Tests used:
[1] = Inhibition rat liver microsome ACAT; type: microsomes
HL-60 = assay: Cytotoxicity against human HL-60 cells assessed as reduction in cell viability incubated for 24 hrs by MTT assay; type: functional, cell-based; details: HL-60, 24 h
MCF7 = assay: Cytotoxicity against human MCF7 cells assessed as reduction in cell viability incubated for 24 hrs by MTT assay; type: functional, cell-based; details: MCF7, 24 h
SW480 = assay: Cytotoxicity against human SW480 cells assessed as reduction in cell viability incubated for 24 hrs by MTT assay; type: functional, cell-based; details: SW480, 24 h
Aspergillus fumigatus = assay: Antifungal activity against Aspergillus fumigatus ATCC 46645 assessed as fungal growth inhibition incubated for 24 hrs by CLSI protocol based broth microdilution method; type: functional, organism-based; details: ATCC 46645, 24 h
Influenza A virus = assay: Antiviral activity against Influenza A virus H9N2 infected in MDCK cells assessed as inhibition of viral replication; type: functional, organism-based
Aspergillus niger = assay: Antifungal activity against Aspergillus niger assessed as fungal growth inhibition; type: functional
Human alphaherpesvirus 1 = assay: Antiviral activity against HSV-1 infected in African green monkey Vero cells by plaque reduction assay; type: functional, organism-based; details: Human alphaherpesvirus 1, Vero
Trypanosoma cruzi = assay: Antitrypanosomal activity against Trypanosoma cruzi amastigote assessed as parasite growth inhibition incubated for 24 hrs by light microscopic analysis; type: functional, organism-based
Plasmodium falciparum = assay: Antiplasmodial activity against Plasmodium falciparum 3D7 assessed as reduction in parasite growth incubated for 72 hrs by SYBR Green dye based fluorescence assay; type: functional, organism-based; details: 3D7, 72 h

In the case of CC(C)[C@H]1OC(=O)[C@H](Cc2ccccc2)N(C)C(=O)[C@@H](C(C)C)OC(=O)[C@H](Cc2ccccc2)N(C)C(=O)[C@@H](C(C)C)OC(=O)[C@H](Cc2ccccc2)N(C)C1=O, the IC50 [1] is reported as 3 µM.

Work on CC[C@H](C)[C@@H]1NC(=O)[C@@H]2[C@H](C)CCN2C(=O)[C@H](C[C@H](O)CCl)OC(=O)CCNC(=O)[C@@H](C)N(C)C(=O)[C@H]([C@@H](C)CC)N(C)C1=O yielded an IC50 (HL-60) of 0.149 µM, an IC50 (MCF7) of 0.079 µM and an IC50 (SW480) of 0.107 µM.

With CCCCCCC/C=C/C=C/C=C/[C@H](C[C@H](O)C[C@H]1NC(=O)[C@H](C[C@H](O)CO)NC(=O)[C@@H](CC(N)=O)NC(=O)[C@H](C[C@H](O)CO)NC(=O)[C@H](C)CNC(=O)[C@H]1O)OC the IC50 (Aspergillus fumigatus) was 4 µM.

With C=C(NC(=O)c1nc(C(=C)NC(=O)[C@@H](NC(=O)C(=C)NC(=O)c2coc(/C(=C/C)NC(=O)[C@@H](NC(C)=O)[C@@H](C)O)n2)C(C)C)oc1C)C(=O)NC(=C)c1nc(-c2nc(C(N)=O)ccc2-c2nccs2)co1 the IC50 (Influenza A virus) was 28.7 µM.

CCCCCCC/C=C/C=C/C=C/[C@H](C[C@H](O)C[C@@H]1CC(=O)NC[C@@H](C)C(=O)N[C@@H](C[C@H](O)CO)C(=O)N[C@H](CC(N)=O)C(=O)N[C@@H](C[C@H](O)CO)C(=O)N1)OC gave an IC50 (Aspergillus fumigatus) of 4 µM.

Work on CCCCCCC/C=C/C=C/C=C/[C@H](C[C@H](O)C[C@H]1NC(=O)[C@H](C[C@H](O)CO)NC(=O)[C@@H](CC(N)=O)NC(=O)[C@H](CC(N)=O)NC(=O)[C@H](C)CNC(=O)[C@H]1O)OC yielded an IC50 (Aspergillus fumigatus) of 4 µM.

Work on CCCCCCC/C=C/C=C/C=C/[C@H](C[C@H](O)C[C@@H]1CC(=O)NC[C@@H](C)C(=O)N[C@@H](CC(N)=O)C(=O)N[C@H](CC(N)=O)C(=O)N[C@@H](C[C@H](O)CO)C(=O)N1)OC yielded an IC50 (Aspergillus fumigatus) of 4 µM.

Molecule CCCCCCC/C=C/C=C/C=C/[C@H](C[C@H](O)C[C@H]1NC(=O)[C@H](C[C@H](O)C(C)O)NC(=O)[C@@H](CC(N)=O)NC(=O)[C@H](CC(N)=O)NC(=O)[C@H](C)CNC(=O)[C@H]1O)OC (some centres not stated) has an IC50 (Aspergillus fumigatus) of 4 µM.

C=C(NC(=O)C(=C)NC(=O)c1ccc(-c2nccs2)c(-c2coc(C(=C)NC(=O)C(=C)NC(=O)c3nc(C(=C)NC(=O)[C@@H](NC(=O)C(=C)NC(=O)c4coc(/C(=C/C)NC(=O)[C@@H](NC(C)=O)[C@@H](C)O)n4)C(C)C)oc3C)n2)n1)C(N)=O (Ac-T[X3][Dha]V[X4][Dha][X5][Dha][Dha]-NH2) gave an IC50 (Influenza A virus) of 18.3 µM.

With C=C(NC(=O)c1ccc(-c2nccs2)c(-c2coc(C(=C)NC(=O)C(=C)NC(=O)c3nc(C(=C)NC(=O)[C@@H](NC(=O)C(=C)NC(=O)c4coc(/C(=C/C)NC(=O)[C@@H](NC(C)=O)[C@@H](C)O)n4)C(C)(C)O)oc3C)n2)n1)C(N)=O (Ac-T[X3][Dha][Val(3-OH)][X4][Dha][X5][Dha]-NH2) the IC50 (Influenza A virus) was 7.3 µM.

C=C(NC(=O)C(=C)NC(=O)c1ccc(-c2nccs2)c(-c2coc(C(=C)NC(=O)C(=C)NC(=O)c3nc(C(=C)NC(=O)[C@@H](NC(=O)C(=C)NC(=O)c4coc(/C(=C/C)NC(=O)[C@@H](NC(C)=O)[C@@H](C)O)n4)C(C)(C)O)oc3C)n2)n1)C(N)=O (Ac-T[X3][Dha][Val(3-OH)][X4][Dha][X5][Dha][Dha]-NH2) gave an IC50 (Influenza A virus) of 15.3 µM.

In the case of CCCCCCCCCCCC[C@@H]1NC(=O)[C@@H]2CCCN2C(=O)[C@H](CCC(N)=O)NC(=O)[C@H](CC(N)=O)NC(=O)[C@H](CO)NC(=O)[C@H](CC(N)=O)NC(=O)[C@H](Cc2ccc(O)cc2)NC(=O)[C@H](CC(N)=O)NC1=O (cyclo(NQP[Gly(Dodecyl)]NYNS)), the MIC (Aspergillus niger) is reported as 3.12 µg/mL (≈ 2.99 µM).

Work on CCC(C)CCCCCCCCCCC[C@@H]1NC(=O)[C@@H]2CCCN2C(=O)[C@H](CCC(N)=O)NC(=O)[C@H](CC(N)=O)NC(=O)[C@H](CO)NC(=O)[C@H](CC(N)=O)NC(=O)[C@H](Cc2ccc(O)cc2)NC(=O)[C@H](CC(N)=O)NC1=O (some centres not stated) (cyclo(NQP[X1]NYNS)) yielded an MIC (Aspergillus niger) of 3.12 µg/mL (≈ 2.87 µM).

CCC(C)CCCCCCCCC[C@@H]1NC(=O)[C@@H]2CCCN2C(=O)[C@H](CCC(N)=O)NC(=O)[C@H](CC(N)=O)NC(=O)[C@H](CO)NC(=O)[C@H](CC(N)=O)NC(=O)[C@H](Cc2ccc(O)cc2)NC(=O)[C@H](CC(N)=O)NC1=O (some centres not stated) (cyclo(NQP[X2]NYNS)) showed an MIC (Aspergillus niger) of 3.12 µg/mL (≈ 2.95 µM).

Molecule CC(C)CCCCCCCCCC[C@@H]1NC(=O)[C@@H]2CCCN2C(=O)[C@H](CCC(N)=O)NC(=O)[C@H](CC(N)=O)NC(=O)[C@H](CO)NC(=O)[C@H](CC(N)=O)NC(=O)[C@H](Cc2ccc(O)cc2)NC(=O)[C@H](CC(N)=O)NC1=O (cyclo(NQP[X6]NYNS)) has an MIC (Aspergillus niger) of 3.12 µg/mL (≈ 2.95 µM).

Work on CC(C)CCCCCCCCCCC[C@@H]1NC(=O)[C@@H]2CCCN2C(=O)[C@H](CCC(N)=O)NC(=O)[C@H](CC(N)=O)NC(=O)[C@H](CO)NC(=O)[C@H](CC(N)=O)NC(=O)[C@H](Cc2ccc(O)cc2)NC(=O)[C@H](CC(N)=O)NC1=O (cyclo(NQP[X7]NYNS)) yielded an MIC (Aspergillus niger) of 3.12 µg/mL (≈ 2.91 µM).

Work on CCCCCCCCCCCCCC[C@@H]1NC(=O)[C@@H]2CCCN2C(=O)[C@H](CCC(N)=O)NC(=O)[C@H](CC(N)=O)NC(=O)[C@H](CO)NC(=O)[C@H](CC(N)=O)NC(=O)[C@H](Cc2ccc(O)cc2)NC(=O)[C@H](CC(N)=O)NC1=O (cyclo(NQP[X8]NYNS)) yielded an MIC (Aspergillus niger) of 3.12 µg/mL (≈ 2.91 µM).

COc1ccc(C[C@@H]2NC(=O)[C@@H]3CCCN3C(=O)[C@H](C(C)C)NC(=O)[C@H](Cc3ccc(O)cc3)N(C)C(=O)[C@H](Cc3ccc(OC)cc3)NC2=O)cc1 (cyclo([NMeY]VPY(Me)Y(Me))) gave an IC50 (Human alphaherpesvirus 1) of 9.5 µM.

In the case of COc1ccc2c3c([nH]c2c1)[C@H](C=C(C)C)N1C(=O)[C@@H]2CCCN2C(=O)[C@@H]1C3 [FUMITREMORGIN], the IC50 (Trypanosoma cruzi) is reported as 9.6 µM and the IC50 (Plasmodium falciparum) is reported as 2.3 µM.
